Test results: US20260085094A1, “STAPLED PEPTIDE AND USE THEREOF” (priority 2021, published 2026)

Tests used:
in vivo [1] = test: in vivo; set-up: species or system SD rats; details: rat, sc, 0.048 mg/kg
Experimental: (§1) To test the in vivo pharmacokinetics of the polypeptides of the present disclosure in SD rats. The pharmacokinetic characteristics of the polypeptides of the present disclosure after subcutaneous injection in rodents were tested according to SOP. In the experiment, the polypeptide was prepared into a clear solution, which was administered to rats by single subcutaneous injection (SC, 0.048 mpk). The vehicle for injection was citrate buffer (20 mM, pH=7). The whole blood was collected and prepared to obtain the plasma. The drug concentration was analyzed by LC-MS/MS method, and the pharmacokinetic parameters were calculated using Phoenix WinNonlin software.

GLP-1R = biological target: T1, GLP-1R (Homo sapiens, UniProt P43220); test: In vitro GLP-1R agonistic activity test (cAMP assay); format: cell-based; details: GLP-1R HEK293 cell line
T1 construct: host or cells: HEK293
Experimental: (§2) [table] The compounds to be tested were diluted 4-fold at 10 wells, starting from an initial concentration of 30 μM. […] The TopSeal-A film was removed, and readout was performed on EnVision.

GCGR = biological target: T2, GCGR (Homo sapiens, UniProt P47871); test: In vitro GCGR agonistic activity test (cAMP assay); format: cell-based; details: GCGR HEK293 cell line, read-out: GCG EC50
T2 construct: host or cells: HEK293
Experimental: as §2

in vivo [2] = test: in vivo; set-up: species or system C57BL/6 mice; details: sc, 0.048 mg/kg
Experimental: as §1, with “C57BL/6 mice.” for “SD rats.”, “after intravenous injection and” for “after”, “mice” for “rats”, “for subcutaneous” for “for”

GIPR = biological target: T3, GIPR (Homo sapiens, UniProt P48546); test: In vitro GIPR agonistic activity test (cAMP assay); format: cell-based; details: GIPR CHO cell line, read-out: GIP-1 EC50
T3 construct: host or cells: CHO
T3 sequence (P48546 22-466): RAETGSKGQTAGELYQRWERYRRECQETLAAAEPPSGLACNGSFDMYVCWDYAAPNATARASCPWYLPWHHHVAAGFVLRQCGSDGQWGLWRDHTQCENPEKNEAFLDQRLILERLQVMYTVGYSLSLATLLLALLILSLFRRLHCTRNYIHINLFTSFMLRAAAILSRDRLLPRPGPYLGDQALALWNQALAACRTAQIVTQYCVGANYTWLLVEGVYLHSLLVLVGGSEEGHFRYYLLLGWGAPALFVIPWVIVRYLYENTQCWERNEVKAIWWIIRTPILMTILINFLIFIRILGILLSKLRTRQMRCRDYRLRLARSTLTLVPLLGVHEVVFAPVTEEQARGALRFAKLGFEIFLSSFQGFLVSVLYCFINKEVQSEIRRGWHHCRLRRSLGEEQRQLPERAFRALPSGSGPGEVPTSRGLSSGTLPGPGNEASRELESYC
Experimental: as §2

in vivo [3] = test: in vivo; set-up: species or system cynomolgus macaques; details: cynomolgus monkey, sc, 0.02 mg/kg
Experimental: as §1, with “cynomolgus macaques.” for “SD rats.”, “after intravenous injection and” for “after”, “mammals” for “rodents”, “cynomolgus macaques” for “rats”, “0.02” for “0.048”, “for subcutaneous” for “for”

T1 sequence (P43220 24-463, species assumed): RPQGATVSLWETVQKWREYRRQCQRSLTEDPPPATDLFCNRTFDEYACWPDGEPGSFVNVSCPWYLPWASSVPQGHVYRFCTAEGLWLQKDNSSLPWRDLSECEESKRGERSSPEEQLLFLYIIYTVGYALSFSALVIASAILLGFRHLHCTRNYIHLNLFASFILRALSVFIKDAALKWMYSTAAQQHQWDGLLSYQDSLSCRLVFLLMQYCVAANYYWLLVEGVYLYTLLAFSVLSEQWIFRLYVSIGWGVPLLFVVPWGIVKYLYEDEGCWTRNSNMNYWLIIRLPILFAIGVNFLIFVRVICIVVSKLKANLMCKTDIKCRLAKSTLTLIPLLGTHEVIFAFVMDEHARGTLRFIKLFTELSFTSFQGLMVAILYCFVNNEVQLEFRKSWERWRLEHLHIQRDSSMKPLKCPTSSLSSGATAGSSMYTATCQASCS
T2 sequence (P47871 26-477, species assumed): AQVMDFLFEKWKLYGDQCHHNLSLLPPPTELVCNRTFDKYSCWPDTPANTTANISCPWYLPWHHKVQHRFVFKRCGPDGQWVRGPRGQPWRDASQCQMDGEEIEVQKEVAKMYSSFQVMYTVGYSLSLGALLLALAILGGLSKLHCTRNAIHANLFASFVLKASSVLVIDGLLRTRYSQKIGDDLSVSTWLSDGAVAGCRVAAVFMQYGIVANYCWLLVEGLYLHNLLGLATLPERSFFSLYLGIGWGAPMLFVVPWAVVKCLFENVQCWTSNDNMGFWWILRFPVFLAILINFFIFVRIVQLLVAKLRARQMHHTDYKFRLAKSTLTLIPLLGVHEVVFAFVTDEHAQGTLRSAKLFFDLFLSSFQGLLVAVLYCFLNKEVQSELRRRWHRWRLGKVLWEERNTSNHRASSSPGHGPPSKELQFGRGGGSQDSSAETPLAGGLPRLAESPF

Row | AUC(0-t) (in vivo [1]; SD) [µM·h] | Cmax (in vivo [1]; SD) [nM] | Tmax (in vivo [1]; SD) [h] | half-life (in vivo [1]; SD) [h] | EC50 (GLP-1R) [nM] | EC50 (GCGR) [nM] | AUC(0-t) (in vivo [2]; C57BL/6, mouse) [µM·h] | Cmax (in vivo [2]; C57BL/6, mouse) [nM] | Tmax (in vivo [2]; C57BL/6, mouse) [h] | half-life (in vivo [2]; C57BL/6, mouse) [h] | EC50 (GIPR) [nM] | AUC(0-t) (in vivo [3]) [µM·h] | Cmax (in vivo [3]) [nM] | Tmax (in vivo [3]) [h] | half-life (in vivo [3]) [h] | SMILES | also measured
1 | 0.718 | 17 | 24 | 25 | 0.072 | 0.55 | 1.83 | 58 | 12 | 16 | 0.13 | 5.29 | 49 | 32 | 61 | CC[C@H](C)[C@H](NC(=O)[C@H](Cc1ccccc1)NC(=O)[C@H](C)NC(=O)[C@@H]1CCCCNC(=O)CN(C(=O)COCCOCCNC(=O)COCCOCCNC(=O)CC[C@H](NC(=O)CCCCCCCCCCCCCCCCCCC(=O)O)C(=O)O)CC(=O)NCCCC[C@H](NC(=O)[C@H](CCCCN)NC(=O)[C@H](CC(=O)O)NC(=O)[C@H](CC(C)C)NC(=O)[C@](C)(CC(C)C)NC(=O)[C@@H](NC(=O)[C@H](CO)NC(=O)[C@H](Cc2ccc(O)cc2)NC(=O)[C@H](CC(=O)O)NC(=O)[C@H](CO)NC(=O)[C@@H](NC(=O)[C@H](Cc2ccccc2)NC(=O)[C@@H](NC(=O)CNC(=O)[C@H](CCC(N)=O)NC(=O)C(C)(C)NC(=O)[C@@H](N)Cc2ccc(O)cc2)[C@@H](C)O)[C@@H](C)O)[C@@H](C)CC)C(=O)N[C@@H](C)C(=O)N[C@@H](CCC(N)=O)C(=O)N1)C(=O)N[C@@H](CCC(=O)O)C(=O)N[C@@H](Cc1ccc(O)cc1)C(=O)N[C@@H](CC(C)C)C(=O)N[C@@H](CC(C)C)C(=O)N[C@@H](CCC(=O)O)C(=O)NCC(=O)NCC(=O)N1CCC[C@H]1C(=O)N[C@@H](CO)C(=O)N[C@@H](CO)C(=O)NCC(=O)N[C@@H](C)C(=O)N1CCC[C@H]1C(=O)N1CCC[C@H]1C(=O)N1CCC[C@H]1C(=O)N[C@@H](CO)C(N)=O [WX001] | –
2 | – | 30 | – | – | – | – | – | 69 | – | – | – | 5.1 | 54 | 24 | 52 | CC[C@H](C)[C@H](NC(=O)[C@H](Cc1ccccc1)NC(=O)[C@H](C)NC(=O)C(C)(C)NC(=O)[C@@H]1CCCCNC(=O)CN(C(=O)COCCOCCNC(=O)COCCOCCNC(=O)CC[C@H](NC(=O)CCCCCCCCCCCCCCCCCCC(=O)O)C(=O)O)CC(=O)NCCCC[C@H](NC(=O)[C@H](CC(=O)O)NC(=O)[C@H](CC(C)C)NC(=O)[C@](C)(CC(C)C)NC(=O)[C@@H](NC(=O)[C@H](CO)NC(=O)[C@H](Cc2ccc(O)cc2)NC(=O)[C@H](CC(=O)O)NC(=O)[C@H](CO)NC(=O)[C@@H](NC(=O)[C@H](Cc2ccccc2)NC(=O)[C@@H](NC(=O)CNC(=O)[C@H](CCC(N)=O)NC(=O)C(C)(C)NC(=O)[C@@H](N)Cc2ccc(O)cc2)[C@@H](C)O)[C@@H](C)O)[C@@H](C)CC)C(=O)N[C@@H](CCCCN)C(=O)N[C@@H](C)C(=O)N1)C(=O)N[C@@H](CCC(=O)O)C(=O)N[C@@H](Cc1ccc(O)cc1)C(=O)N[C@@H](CC(C)C)C(=O)N[C@@H](CC(C)C)C(=O)N[C@@H](CCC(=O)O)C(=O)NCC(=O)NCC(=O)N1CCC[C@H]1C(=O)N[C@@H](CO)C(=O)N[C@@H](CO)C(=O)NCC(=O)N[C@@H](C)C(=O)N1CCC[C@H]1C(=O)N1CCC[C@H]1C(=O)N1CCC[C@H]1C(=O)N[C@@H](CO)C(N)=O [WX002] | AUC(0-t) (in vivo [1]): 1.06 µM·h; Tmax (in vivo [1]): 20 h; half-life (in vivo [1]): 14 h; AUC(0-t) (in vivo [2]; mouse): 2.01 µM·h; Tmax (in vivo [2]; mouse): 8 h; half-life (in vivo [2]; mouse): 10 h
3 | 1.21 | 26 | 28 | 23 | 0.063 | 1.4 | 2.13 | 72 | 12 | 15 | 0.14 | 5.81 | 43 | 48 | 100 | CC[C@H](C)[C@H](NC(=O)[C@H](Cc1ccccc1)NC(=O)[C@H](C)NC(=O)C(C)(C)NC(=O)[C@H](CCC(N)=O)NC(=O)[C@H](C)NC(=O)[C@H](CCCCN)NC(=O)[C@H](CCCCN)NC(=O)[C@H](CC(=O)O)NC(=O)[C@H](CC(C)C)NC(=O)[C@](C)(CC(C)C)NC(=O)[C@@H](NC(=O)[C@H](CO)NC(=O)[C@H](Cc1ccc(O)cc1)NC(=O)[C@H](CC(=O)O)NC(=O)[C@H](CO)NC(=O)[C@@H](NC(=O)[C@H](Cc1ccccc1)NC(=O)[C@@H](NC(=O)CNC(=O)[C@H](CCC(N)=O)NC(=O)C(C)(C)NC(=O)[C@@H](N)Cc1ccc(O)cc1)[C@@H](C)O)[C@@H](C)O)[C@@H](C)CC)C(=O)N[C@@H](CCC(=O)O)C(=O)N[C@H]1CCCCNC(=O)CN(C(=O)COCCOCCNC(=O)COCCOCCNC(=O)CC[C@H](NC(=O)CCCCCCCCCCCCCCCCCCC(=O)O)C(=O)O)CC(=O)NCCCC[C@@H](C(=O)NCC(=O)NCC(=O)N2CCC[C@H]2C(=O)N[C@@H](CO)C(=O)N[C@@H](CO)C(=O)NCC(=O)N[C@@H](C)C(=O)N2CCC[C@H]2C(=O)N2CCC[C@H]2C(=O)N2CCC[C@H]2C(=O)N[C@@H](CO)C(N)=O)NC(=O)[C@H](CC(C)C)NC(=O)[C@H](CC(C)C)NC1=O [WX005] | –
